# Results as given in US20260373132A1, “PERK INHIBITORHC-5404 IN COMBINATION WITH ANTI-PD-1 ANTIBODY AND/OR AN ANTIANGIOGENETIC AGENT FOR USE IN THE TREATMENT OF CANCER” (HIBERCELL, INC., priority 2022, published 2026).
# Key:
# [1] = tested on: human cord blood-derived MDSCs / CD3 T cells; test: human T cell suppression assay with human cord blood-derived MDSCs; type: cell-based; details: 500 or 750 nM (FIG. 10A, 10C)
# Protocol: Human MDSC Preparation: Fresh cord blood was obtained from NDRI (Protocol ID #RCHA4 01). Mononuclear cells were enriched from cord blood by Lymphoprep density gradient centrifugation, followed by CD34+ cell isolation using EasySep Human Cord Blood CD34 Positive selection Kit II, and the enriched CD34+ cells were cultured in a 48-well plate (BD Falcon, Bedford, MA) at 1×10^5 cells/well/ml of IMDM complete medium (IMDM supplemented with 10% FBS, 1× penicillin-streptomycin and 2 mM L-glutamax). 100 ng/ml human GM-CSF, 100 ng/ml human G-CSF and 50 ng/ml human SCF were added to the IMDM complete medium and cells were expanded for 13-14 days in a 37 °C, 5% CO2 humidified incubator and medium was refreshed on day 7. MDSC differentiation was induced by culturing the expanded CD34+ cells in a 24 well plate at 0.1-0.15×10^6 cells/well in 2 ml of IMDM complete medium supplemented with 100 ng/ml human GM-CSF, 50 ng/mL G-CSF and 30 ng/ml IL-6 for additional 6-7 days with medium changed on day 3. […]
# Human T cell Suppression Assay. […] T cell proliferation was analyzed by flow cytometry. […] The labeled cells were analyzed on a BD Fortessa cytometer and data was analyzed by FlowJo. […] Data were analyzed using one-way ANOVA with multiple comparison corrected with Dunnett test. *P<0.05; **P<0.01; ***P<0.005, ****P<0.0001 (FIGS. 10A, 10B, and 10C).
# [2] = tested on: Capan-2 pancreatic tumor xenografts; test: CAPAN-2 pancreatic xenograft tumor growth; type: in vivo, mouse; details: for TGI: 48 days
# [3] = tested on: tumor vasculature of 786-O xenografts; test: IHC of tumor vasculature in 786-O xenografts; type: in vivo, mouse
# Protocol: Formalin-fixed paraffin-embedded samples were sectioned at 5 μm thickness and mounted on Superfrost Plus microscope slides (Fisher Scientific). All immunohistochemical (IHC) staining was performed on Bond Rx auto-stainer (Leica Biosystems) using the conventional TSA-amplified detection system. Primary antibodies used were as follows: α-CD31 (Abcam #ab182981), α-smooth muscle actin (SMA; Abcam #ab124964), α-Meca32 (Novus Biologicals #NB100-77668). TSA-conjugated Alexa488 and Alexa647 fluorophores from Invitrogen (#B40953 and #B40958) were used at 1:500 dilution. Slides were counterstained with DAPI and cover slipped using Mowiol antifade mounting media (Sigma #D2522).
# Slides were imaged with Aperio Versa 200 (Leica Biosystems) whole-slide scanner using 10×/0.32NA objective, and the data were analyzed using custom-written macros in ImageJ/FIJI (NIH). Briefly, 150 μm of outer edges of the tumor sections were eliminated from the analysis. Gaussian-blurred DAPI channel was used to measure the area of the tissue. Scans of […] were processed with median filter to remove noise, then positive areas were measured with appropriate threshold levels. % positive area for each marker was calculated. CD31-SMA double positive areas were measured via image calculation of the binary images. One-way ANOVA and pair-wise comparisons were performed on the data using Prism GraphPad.
# PERK is an adaptive stress response that links hypoxia and nutrient deprivation with proangiogenic signaling. The effect of HC-5404 on tumor vasculature when administered in combination with antiangiogenic VEGFR-TKIs was investigated.
# As immature blood vessels mature, they develop a mural layer of cells that express smooth muscle actin (SMA), which encircles and stabilizes the maturing vessel. Co-staining for both CD31 and SMA was conducted to determine whether treatments were affecting mature or immature tumor blood vessels.
# This example investigated the inhibition the effect of cabozantinib on the formation of new tumor vasculature and on pericytes following procedures analogous to those described above.
# [4] = mouse plasma protein binding; type: in vitro ADME; details: read-out: Mouse plasma protein binding (PPB %) (converted)
# Protocol: Initial in vivo studies aimed at understanding the pharmacokinetic and pharmacodynamic (PK/PD) relationship and optimizing the dosing regimen were conducted. HC-5404 was quantified from mouse plasma following a single oral administration (PO) at doses ranging from 3 to 100 mg/kg. […] Mouse plasma protein binding (PPB %) was determined to be 95.6%, which enabled us to calculate the free drug plasma exposure across time (FIG. 18).
structure (smiles),measurement,setting,value
"Cc1cc(NC(=O)[C@H](O)c2cc(F)cc(F)c2)ccc1-c1cnc(N)c(C(=O)NC(C)C)c1 [HC-5404, (R)-2-amino-5-(4-(2-(3,5-difluorophenyl)-2-hydroxyacetamido)-2-methylphenyl)-N-isopropylnicotinamide]",inhibition of T-cells by MDSCs,[1],reduced inhibition of T-cells
same,TGI,[2]; 30 mg/kg PO BID,50%
same,TGI,[2]; 100 mg/kg PO BID,43%
same,difference between dose levels in TGI,[2]; 30 vs 100 mg/kg BID,No difference between the dose levels
same,expression of any vascular markers,[3]; HC-5404 single agent (FIG. 39),did not affect the expression of any vascular markers
same,proportion of Meca32 expressing vascular endothelial cells,"[3]; axitinib study (FIG. 38, 39)",did not affect this vascular endothelium marker
same,fraction unbound,[4],0.044
